Assay results reported in patent publication US9914736B2, “TrKA kinase inhibitors, compositions and methods thereof” (Merck Sharp & Dohme Corp., priority 2014, dated 2018).

Biological target: human TrkA receptor (Homo sapiens (Human), UniProt P04629)
Test: DiscoverX PathHunter TrkA functional assay
Format: cell-based
Details: U2OS cells expressing human TrkA-ProLink, Shc1-EA and p75NTR; compound 1 h, then NGF at ~80% of maximal response for 3 h; luminescence

Chain of human TrkA receptor (P04629 33-796): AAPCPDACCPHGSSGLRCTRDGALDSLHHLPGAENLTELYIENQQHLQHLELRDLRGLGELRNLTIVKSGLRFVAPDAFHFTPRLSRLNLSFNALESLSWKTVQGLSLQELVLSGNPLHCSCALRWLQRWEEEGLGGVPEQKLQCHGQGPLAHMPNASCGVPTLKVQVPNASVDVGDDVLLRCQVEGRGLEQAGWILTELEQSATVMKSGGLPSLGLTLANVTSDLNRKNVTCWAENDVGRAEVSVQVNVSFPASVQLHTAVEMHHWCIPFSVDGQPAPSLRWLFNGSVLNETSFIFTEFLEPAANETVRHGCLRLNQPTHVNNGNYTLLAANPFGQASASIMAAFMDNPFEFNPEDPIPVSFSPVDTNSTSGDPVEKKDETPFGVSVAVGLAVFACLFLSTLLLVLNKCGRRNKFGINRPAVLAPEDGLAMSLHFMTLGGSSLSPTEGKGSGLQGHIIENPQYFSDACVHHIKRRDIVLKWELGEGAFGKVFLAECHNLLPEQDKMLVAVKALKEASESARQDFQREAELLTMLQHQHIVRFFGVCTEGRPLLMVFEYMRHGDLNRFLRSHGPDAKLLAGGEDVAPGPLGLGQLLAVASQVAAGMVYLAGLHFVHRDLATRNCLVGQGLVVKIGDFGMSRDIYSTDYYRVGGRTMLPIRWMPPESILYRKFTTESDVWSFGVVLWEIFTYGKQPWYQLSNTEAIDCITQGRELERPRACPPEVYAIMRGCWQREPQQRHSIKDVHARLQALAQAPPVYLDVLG

Cn1ccc(-c2cc(C(=O)Nc3cc(Cn4ncnn4)nn3-c3ccccc3)ccc2C(F)(F)F)n1 [Compound 67, 3-(1-methyl-1H-pyrazol-3-yl)-N-[1-phenyl-3-(2H-tetrazol-2-ylmethyl)-1H-pyrazol-5-yl]-4-(trifluoromethyl)benzamide] and Cn1cc(Cc2cc(NC(=O)c3ccc(C(F)(F)F)c(-c4ccn(C)n4)c3)n(-c3ccc(F)cc3)n2)cn1 [Compound 90, N-(1-(4-fluorophenyl)-3-((1-methyl-1H-pyrazol-4-yl)methyl)-1H-pyrazol-5-yl)-3-(1-methyl-1H-pyrazol-3-yl)-4-(trifluoromethyl)benzamide] are within 1.5-fold of each other in IC50: 3.7 nM for the first, 3.6 nM for the second.

Cc1cc(-n2nc(CNCCO)cc2NC(=O)c2ccc(C(F)(F)F)c(-c3ccn(C)n3)c2)[nH]n1 [Compound 68, N-(3-{[(2-hydroxyethyl)amino]methyl}-5′-methyl-2′H-1,3′-bipyrazol-5-yl)-3-(1-methyl-1H-pyrazol-3-yl)-4-(trifluoromethyl)benzamide] and Cc1cc(-n2nc(CN3CCCC3)cc2NC(=O)c2ccc(C(F)(F)F)c(-c3ccn(C)n3)c2)[nH]n1 [Compound 69, 3-(1-methyl-1H-pyrazol-3-yl)-N-[5′-methyl-3-(pyrrolidin-1-ylmethyl)-2′H-1,3′-bipyrazol-5-yl]-4-(trifluoromethyl)benzamide] are the same in IC50: 240 nM for the first, 240 nM for the second.

First: O=C(Nc1cc(-c2ccc(=O)[nH]n2)nn1-c1ccccc1)c1ccc(C(F)(F)F)c(-c2ccn(CC(F)(F)F)n2)c1 [Compound 70, N-[3-(6-oxo-1,6-dihydropyridazin-3-yl)-1-phenyl-1H-pyrazol-5-yl]-3-[1-(2,2,2-trifluoroethyl)-1H-pyrazol-3-yl]-4-(trifluoromethyl)benzamide]
Second: Cn1ccc(-c2cc(C(=O)Nc3cc(-c4ccc(=O)[nH]n4)nn3-c3ccccc3)ccc2OC(F)(F)F)n1 [Compound 71, 3-(1-methyl-1H-pyrazol-3-yl)-N-[3-(6-oxo-1,6-dihydropyridazin-3-yl)-1-phenyl-1H-pyrazol-5-yl]-4-(trifluoromethoxy)benzamide]
The IC50 of the first is 4.4-fold higher: 390 nM for the first, 89 nM for the second. The second is the more potent here.

Cc1nc(NC(=O)c2ccc(C(F)(F)F)c(-c3ccn(C)n3)c2)c(-c2ccccc2)s1 [Compound 72, N-(2-methyl-5-phenyl-1,3-thiazol-4-yl)-3-(1-methyl-1H-pyrazol-3-yl)-4-(trifluoromethyl)benzamide] and Cn1ccc(-c2cc(C(=O)Nc3c(-c4ccccc4)nc4n3CCC4)ccc2C(F)(F)F)n1 [Compound 79, 3-(1-methyl-1H-pyrazol-3-yl)-N-(2-phenyl-6,7-dihydro-5H-pyrrolo[1,2-a]imidazol-3-yl)-4-(trifluoromethyl)benzamide] are within 1.5-fold of each other in IC50: 62 nM for the first, 44 nM for the second.

First: Cc1cc(NC(=O)c2ccc(OC(F)(F)F)c(-c3ccn(C)n3)c2)n(-c2ccc(F)cc2)n1 [Compound 73, N-[1-(4-fluorophenyl)-3-methyl-1H-pyrazol-5-yl]-3-(1-methyl-1H-pyrazol-3-yl)-4-(trifluoromethoxy)benzamide]
Second: CCn1ccc(-c2cc(C(=O)Nc3cc(C)nn3-c3ccc(F)cc3)ccc2C(F)(F)F)n1 [Compound 75, 3-(1-ethyl-1H-pyrazol-3-yl)-N-[1-(4-fluorophenyl)-3-methyl-1H-pyrazol-5-yl]-4-(trifluoromethyl)benzamide]
The IC50 of the first is 1.6-fold lower: 57 nM for the first, 89 nM for the second. The first is the more potent here.

First: Cc1cc(-c2nn(C)cc2NC(=O)c2ccc(C(F)(F)F)c(-c3ccn(C)n3)c2)[nH]n1 [Compound 74, N-(1,5′-dimethyl-1H,2′H-3,3′-bipyrazol-4-yl)-3-(1-methyl-1H-pyrazol-3-yl)-4-(trifluoromethyl)benzamide]
Second: Cc1cc(-n2nc(C(=O)NCc3cncnc3)cc2NC(=O)c2ccc(C(F)(F)F)c(-c3ccn(C)n3)c2)[nH]n1 [Compound 83, 5′-methyl-5-(3-(1-methyl-1H-pyrazol-3-yl)-4-(trifluoromethyl)benzamido)-N-(pyrimidin-5-ylmethyl)-2′H-[1,3′-bipyrazole]-3-carboxamide]
The IC50 of the first is 110-fold higher: 180 nM for the first, 1.6 nM for the second.

First: Cc1cc(-n2nc(C(=O)NCc3cccnc3)cc2NC(=O)c2cc(-c3ccn(C)n3)c(C(F)(F)F)cc2F)[nH]n1 [Compound 76, 5-({[2-fluoro-5-(1-methyl-1H-pyrazol-3-yl)-4-(trifluoromethyl)phenyl]carbonyl}amino)-5′-methyl-N-(pyridin-3-ylmethyl)-2′H-1,3′-bipyrazole-3-carboxamide]
Second: CNC(=O)c1cc(NC(=O)c2cc(-c3ncccn3)c(C(F)(F)F)cc2F)n(-c2ccc(F)cc2)n1 [Compound 86, 5-(2-fluoro-5-(pyrimidin-2-yl)-4-(trifluoromethyl)benzamido)-1-(4-fluorophenyl)-N-methyl-1H-pyrazole-3-carboxamide]
The IC50 of the first is 18-fold lower: 0.39 nM for the first, 7 nM for the second. The first is the more potent here.

First: Cn1ccc(-c2cc(C(=O)Nc3cc(Cc4nnn(CCO)n4)nn3-c3ccc(F)cc3)ccc2C(F)(F)F)n1 [Compound 77, N-[1-(4-fluorophenyl)-3-{[2-(2-hydroxyethyl)-2H-tetrazol-5-yl]methyl}-1H-pyrazol-5-yl]-3-(1-methyl-1H-pyrazol-3-yl)-4-(trifluoromethyl)benzamide]
Second: CNC(=O)Cn1nnc(Cc2cc(NC(=O)c3ccc(C(F)(F)F)c(-c4ccn(C)n4)c3)n(-c3ccc(F)cc3)n2)n1 [Compound 78, N-[1-(4-fluorophenyl)-3-({2-[2-(methylamino)-2-oxoethyl]-2H-tetrazol-5-yl}methyl)-1H-pyrazol-5-yl]-3-(1-methyl-1H-pyrazol-3-yl)-4-(trifluoromethyl)benzamide]
The IC50 of the first is 8.8-fold higher: 14 nM for the first, 1.6 nM for the second.

Going from Cn1ccc(-c2cc(C(=O)Nc3cc(Cc4nnnn4C)nn3-c3ccccc3)c(Cl)cc2C(F)(F)F)n1 [Compound 80, 2-chloro-5-(1-methyl-1H-pyrazol-3-yl)-N-(3-((1-methyl-1H-tetrazol-5-yl)methyl)-1-phenyl-1H-pyrazol-5-yl)-4-(trifluoromethyl)benzamide] to Cn1ccc(-c2cc(C(=O)Nc3cc(Cc4nnn(C)n4)nn3-c3ccc(F)cc3)c(F)cc2C(F)(F)F)n1 [Compound 85, 2-fluoro-N-(1-(4-fluorophenyl)-3-((2-methyl-2H-tetrazol-5-yl)methyl)-1H-pyrazol-5-yl)-5-(1-methyl-1H-pyrazol-3-yl)-4-(trifluoromethyl)benzamide], the IC50 rises from 0.78 nM to 1.2 nM (1.5-fold).

Going from NC(=O)c1ccc(-c2cc(NC(=O)c3cc(-c4ncccn4)c(C(F)(F)F)cc3F)n(-c3ccc(F)cc3)n2)cc1 [Compound 81, N-[3-(4-carbamoylphenyl)-1-(4-fluorophenyl)-1H-pyrazol-5-yl]-2-fluoro-5-pyrimidin-2-yl-4-(trifluoromethyl)benzamide] to NC(=O)c1ccnc(-c2cc(NC(=O)c3cc(-c4ncccn4)c(C(F)(F)F)cc3F)n(-c3ccc(F)cc3)n2)n1 [Compound 84, 2-(5-(2-fluoro-5-(pyrimidin-2-yl)-4-(trifluoromethyl)benzamido)-1-(4-fluorophenyl)-1H-pyrazol-3-yl)pyrimidine-4-carboxamide], the IC50 rises from 0.76 nM to 4.9 nM (6.4-fold).

Compared with Cn1ccc(-c2cc(C(=O)Nc3c4c(nn3-c3ccc(F)cc3)CCC4)ccc2C(F)(F)F)n1 [Compound 82, N-[2-(4-fluorophenyl)-2,4,5,6-tetrahydrocyclopenta[c]pyrazol-3-yl]-3-(1-methyl-1H-pyrazol-3-yl)-4-(trifluoromethyl)benzamide], Cn1ccc(-c2cc(C(=O)Nc3cc(Cc4cc[nH]n4)nn3-c3ccc(F)cc3)ccc2C(F)(F)F)n1 [Compound 96, N-(3-((1H-pyrazol-3-yl)methyl)-1-(4-fluorophenyl)-1H-pyrazol-5-yl)-3-(1-methyl-1H-pyrazol-3-yl)-4-(trifluoromethyl)benzamide] is 8.9-fold lower in IC50: 33 nM for the first, 3.7 nM for the second.

Compared with O=C(Nc1cc(Cn2cccn2)nn1-c1ccc(F)cc1)c1cc(-c2ncccn2)c(C(F)(F)F)cc1F [Compound 87, N-(3-((1H-pyrazol-1-yl)methyl)-1-(4-fluorophenyl)-1H-pyrazol-5-yl)-2-fluoro-5-(pyrimidin-2-yl)-4-(trifluoromethyl)benzamide], O=C(Nc1cc(CCO)nn1-c1ccc(F)cc1)c1cc(-c2ncccn2)c(C(F)(F)F)cc1F [Compound 93, 2-fluoro-N-(1-(4-fluorophenyl)-3-(2-hydroxyethyl)-1H-pyrazol-5-yl)-5-(pyrimidin-2-yl)-4-(trifluoromethyl)benzamide] is 1.8-fold higher in IC50: 6.6 nM for the first, 12 nM for the second. The first is the more potent here.

Compared with O=C(Nc1cc(C(=O)N2CCC2)nn1-c1ccc(F)cc1)c1cc(-c2ncccn2)c(C(F)(F)F)cc1F [Compound 88, N-(3-(azetidine-1-carbonyl)-1-(4-fluorophenyl)-1H-pyrazol-5-yl)-2-fluoro-5-(pyrimidin-2-yl)-4-(trifluoromethyl)benzamide], O=C(Nc1cc(Cc2n[nH]c(=O)s2)nn1-c1ccc(F)cc1)c1cc(-c2ncccn2)c(C(F)(F)F)cc1F [Compound 89, 2-fluoro-N-(1-(4-fluorophenyl)-3-((5-oxo-4,5-dihydro-1,3,4-thiadiazol-2-yl)methyl)-1H-pyrazol-5-yl)-5-(pyrimidin-2-yl)-4-(trifluoromethyl)benzamide] is 2.9-fold lower in IC50: 14 nM for the first, 4.8 nM for the second.

Going from Cn1ccc(-c2cc(C(=O)Nc3cc(Cc4cnc(N)nc4)nn3-c3ccc(F)cc3)ccc2C(F)(F)F)n1 [Compound 91, N-(3-((2-aminopyrimidin-5-yl)methyl)-1-(4-fluorophenyl)-1H-pyrazol-5-yl)-3-(1-methyl-1H-pyrazol-3-yl)-4-(trifluoromethyl)benzamide] to Cn1ccc(-c2cc(C(=O)Nc3cc(Cc4cnc(N)cn4)nn3-c3ccc(F)cc3)ccc2C(F)(F)F)n1 [Compound 94, N-(3-((5-aminopyrazin-2-yl)methyl)-1-(4-fluorophenyl)-1H-pyrazol-5-yl)-3-(1-methyl-1H-pyrazol-3-yl)-4-(trifluoromethyl)benzamide], the IC50 falls from 6.1 nM to 1.7 nM (3.6-fold). The second is the more potent here.

Cn1ccc(-c2cc(C(=O)Nc3cc(Cc4nnc(N)o4)nn3-c3ccc(F)cc3)ccc2C(F)(F)F)n1 [Compound 92, N-(3-((5-amino-1,3,4-oxadiazol-2-yl)methyl)-1-(4-fluorophenyl)-1H-pyrazol-5-yl)-3-(1-methyl-1H-pyrazol-3-yl)-4-(trifluoromethyl)benzamide] and Cn1ccc(-c2cc(C(=O)Nc3cc(Cc4cncnc4)nn3-c3ccc(F)cc3)ccc2C(F)(F)F)n1 [Compound 95, N-(1-(4-fluorophenyl)-3-(pyrimidin-5-ylmethyl)-1H-pyrazol-5-yl)-3-(1-methyl-1H-pyrazol-3-yl)-4-(trifluoromethyl)benzamide] are within 1.5-fold of each other in IC50: 1.3 nM for the first, 1.4 nM for the second.
